Laboratory results as given in patent US20220017516A1, “LOX INHIBITORS” (THE INSTITUTE OF CANCER RESEARCH: ROYAL CANCER HOSPITAL, priority 2018, published 2022).
pIC50: −log10 of the molar value.

Legend:
[1] = biological target: T1, monoamine oxidase A (MAO-A) (Homo sapiens, UniProt P21397); test: Amine oxidase activity assay (MAO-Glo), MAO-A; format: biochemical
T1 construct: purchased Promega V1452
T1 sequence (P21397 1-527): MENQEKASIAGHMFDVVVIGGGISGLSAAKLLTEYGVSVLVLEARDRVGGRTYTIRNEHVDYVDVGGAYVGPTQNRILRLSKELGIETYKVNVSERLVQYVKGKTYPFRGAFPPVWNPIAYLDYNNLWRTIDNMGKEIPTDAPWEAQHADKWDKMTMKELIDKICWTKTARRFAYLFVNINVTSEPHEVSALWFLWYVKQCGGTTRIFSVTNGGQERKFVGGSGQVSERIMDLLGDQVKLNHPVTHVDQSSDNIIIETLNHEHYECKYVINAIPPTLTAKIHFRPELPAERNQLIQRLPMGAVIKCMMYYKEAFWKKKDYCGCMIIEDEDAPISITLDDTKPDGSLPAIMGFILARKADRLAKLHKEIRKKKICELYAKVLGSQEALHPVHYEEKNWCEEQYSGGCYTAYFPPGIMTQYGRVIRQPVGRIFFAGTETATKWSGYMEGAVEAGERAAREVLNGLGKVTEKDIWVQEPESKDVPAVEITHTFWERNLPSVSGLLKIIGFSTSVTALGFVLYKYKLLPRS
Experimental: (§1) The Promega MAO-Glo assay kit (V1402) was used to assess monoamine oxidase A (MAO-A) and monoamine oxidase B (MAO-B) activity. MAO substrate was prepared at 80 μM with the specific MAO-A/B reaction buffer. Overall, 0.5 μl test compound was added to 25 μl MAO substrate at 100, 30, 10, 3, 1, 0.3, 0.1, 0.03, 0.01 and 0.003 μM (final concentration) in a 96-well white, flat bottom plate. Overall, 25 μl of 1:520 dilution of MAO-A enzyme (Promega, V1452) or 25 μl of 1:52 dilution of MAO-B enzyme (Sigma, M7441) in specific MAO-A/B reaction buffer was added to each well (enzyme prepared at 2×final concentration) and plates were incubated for 1 h at room temperature. Finally, 50 μl per well luciferin detection reagent was added and plates were incubated for 20 min at room temperature, protected from light. Luminescence was measured with an integration time of 500 ms per well using a SpectaMax M5 plate reader and resulting IC50 values were calculated using GraphPad Prism software.
(§2) In another setting, the DAO and MAO assays were performed in 384-well plates (Greiner) and test compound was added using a Labcyte Echo™ Acoustic Handler for the same final concentrations as in the 96-well setting. Luminescence was measured with BMG LABTECH PHERAstar FS plate reader.

[2] = biological target: T2, monoamine oxidase B (MAO-B) (Homo sapiens, UniProt P27338); test: Amine oxidase activity assay (MAO-Glo), MAO-B; format: biochemical
T2 construct: purchased Sigma M7441
T2 sequence (P27338 1-520): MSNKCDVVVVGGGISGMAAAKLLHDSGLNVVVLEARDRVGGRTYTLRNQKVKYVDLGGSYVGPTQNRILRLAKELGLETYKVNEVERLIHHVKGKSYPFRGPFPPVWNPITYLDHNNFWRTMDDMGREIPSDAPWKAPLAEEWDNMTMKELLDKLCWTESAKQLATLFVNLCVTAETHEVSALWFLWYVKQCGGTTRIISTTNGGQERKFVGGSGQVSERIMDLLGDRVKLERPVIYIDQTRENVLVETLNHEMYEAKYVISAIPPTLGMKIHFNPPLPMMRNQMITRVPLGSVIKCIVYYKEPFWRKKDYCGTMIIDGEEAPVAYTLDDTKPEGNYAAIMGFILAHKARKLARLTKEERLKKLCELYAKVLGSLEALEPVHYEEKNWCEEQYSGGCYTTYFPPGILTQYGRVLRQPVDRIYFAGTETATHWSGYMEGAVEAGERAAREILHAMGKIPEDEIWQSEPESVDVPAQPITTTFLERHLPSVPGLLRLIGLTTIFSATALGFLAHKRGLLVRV
Experimental: as §1, §2

LOX = biological target: T3, LOX (Sus scrofa, UniProt P45845); test: LOX isoform activity assay (ROS Glo), LOX; format: biochemical, pig; conditions: 1 h incubation with enzyme
T3 construct: LOX was extracted from pig skin by previously described methods; from tissue; host or cells: pig skin
T3 sequence (P45845 1-249): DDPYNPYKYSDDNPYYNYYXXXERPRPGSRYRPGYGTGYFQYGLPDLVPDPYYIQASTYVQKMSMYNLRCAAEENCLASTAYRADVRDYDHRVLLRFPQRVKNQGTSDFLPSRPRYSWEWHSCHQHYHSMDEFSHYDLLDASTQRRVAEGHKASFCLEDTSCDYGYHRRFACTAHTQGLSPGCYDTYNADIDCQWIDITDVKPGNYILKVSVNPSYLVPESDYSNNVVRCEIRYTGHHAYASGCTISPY
In short: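 Pig-skin LOX or recombinant LOXL3 preincubated 1 h with compound (100-0.003 μM final) in pH 9 CHES buffer containing 1 M urea. Then 19.56 mM cadaverine plus 25 μM H2O2 added, 1.5 h (LOX) or 1 h (LOXL3) at room temperature. ROS-Glo luminescence; IC50 from curve fit.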

With CCOc1ccc(N2CC3CN(CCS(=O)(=O)CCN)CC3C2)cc1 (centres unmarked) [Example 4, 2-((2-(5-(4-ethoxyphenyl)hexahydropyrolo [3,4-c]pyrrol-2(1H)-yl)ethyl)sulfonyl)ethan-1-amine] the pIC50 [1] was < 4.00 and the pIC50 [2] was < 4.00.
For CCOC(=O)CCC(C(=O)N1C[C@@H]2C[C@H]1CN2c1ccc(OCC)cc1)S(=O)(=O)CCN (stereo partly drawn) [Example 41, ethyl 4-((2-aminoethyl)sulfonyl)-5-((1S,4S)-5-(4-ethoxyphenyl)-2,5-diazabicyclo[2.2.1]heptan-2-yl)-5-oxopentanoate], the pIC50 (LOX) was 4.39, the pIC50 [1] was < 4.00 and the pIC50 [2] was < 4.00.
For CCOc1ccc(N2C[C@@H]3C[C@H]2CN3C(=O)CS(=O)(=O)CCN)cc1 [Example 8, 2-((2-aminoethyl)-sulfonyl)-1-((1S,4S)-5-(4-ethoxyphenyl)-2,5-diazabicyclo-[2.2.1]heptan-2-yl)-ethan-1-one], the pIC50 [1] was < 4.00 and the pIC50 [2] was < 4.00.
With CCOc1ccc(N2C[C@H]3CN(C(=O)CS(=O)(=O)CCN)C[C@@H]2C(C)(C)C3)cc1 [Example 7, 2-((2-aminoethyl)sulfonyl)-1-((1S,5S)-6-(4-ethoxyphenyl)-9,9-dimethyl-3,6-diazabicyclo[3.2.2]nonan-3-yl)ethan-1-one] the pIC50 [1] was < 4.00 and the pIC50 [2] was < 4.00.
For NCCS(=O)(=O)CC(=O)N1CCN(c2ncccn2)CC1 [Example 12, 2-((2-Aminoethyl)-sulfonyl)-1-(4-(pyrimidin-2-yl)-piperazin-1-yl)ethan-1-one], the pIC50 [1] was < 4.00 and the pIC50 [2] was < 4.00.
With CCOc1ccc(N2C[C@H]3CN(c4ccc(S(=O)(=O)CCN)cc4)C[C@@H]2C(C)(C)C3)cc1 [Example 33, 2-((4-((1R,5S)-6-(4-ethoxyphenyl)-9,9-dimethyl-3,6-diazabicyclo [3.2.2]nonan-3-yl)phenyl)sulfonyl)ethan-1-amine] the pIC50 [1] was < 4.00 and the pIC50 [2] was < 4.00.
With Cc1ccc(S(=O)(=O)N2C[C@H]3CN(C(=O)CS(=O)(=O)CCN)C[C@H]3C2)cc1 [Example 11, 2-((2-aminoethyl)-sulfonyl)-1-(cis-5-tosylhexahydro-pyrrolo[3,4-c]pyrrol-2(1H)-yl)ethan-1-one] the pIC50 [1] was < 4.00 and the pIC50 [2] was < 4.00.
With NCCS(=O)(=O)CC(=O)N1CCN(c2ccccc2)CC1 [Example 13, 2-((2-Aminoethyl)-sulfonyl)-1-(4-phenylpiperazin-1-yl)ethan-1-one] the pIC50 (LOX) was 4.60, the pIC50 [1] was < 4.00 and the pIC50 [2] was < 4.00.
With CCOc1ccc(N2C[C@H]3CN(C(=O)NCCS(=O)(=O)CCN)C[C@@H]2C(C)(C)C3)cc1 [Example 38, (1S,5S)—N-(2-((2-aminoethyl)sulfonyl)ethyl)-6-(4-ethoxyphenyl)-9,9-dimethyl-3,6-diazabicyclo[3.2.2]nonane-3-carboxamide] the pIC50 (LOX) was 5.06.
With CCOc1ccc(N2C[C@@H]3C[C@H]2CN3CCS(=O)(=O)CCN)cc1 [Example 2, 2-((2-((1S,4S)-5-(4-ethoxyphenyl)-2,5-diazabicyclo[2.2.1]heptan-2-yl)ethyl)sulfonyl)-ethan-1-amine] the pIC50 [1] was < 4.00 and the pIC50 [2] was < 4.00.
CCOc1ccc(N2C[C@H]3CN(CCS(=O)(=O)CCN)C[C@@H]2C(C)(C)C3)cc1 [Example 1, 2-((2-((1R,5S)-6-(4-ethoxyphenyl)-9,9-dimethyl-3,6-diazabicyclo[3.2.2]nonan-3-yl)ethyl)sulfonyl)ethan-1-amine] was tested, and the pIC50 [1] was < 4.00 and the pIC50 [2] was < 4.00.
In the case of CCOc1ccc(N2C[C@@H]3C[C@H]2CN3C(=O)C2(S(=O)(=O)CCN)CC2)cc1 [Example 42, (1-((2-Aminoethyl)sulfonyl)cyclopropyl)((1S,4S)-5-(4-ethoxyphenyl)-2,5-diazabicyclo[2.2.1]heptan-2-yl)methanone], the pIC50 (LOX) was < 4.00, the pIC50 [1] was < 4.00 and the pIC50 [2] was < 4.00.
